Reference: patent US20040037804A1, “Methods for treatment of asthma” (priority 2002, published 2004)

Tested on: airway smooth muscle (ASM) tissues
Assay: Isometric constrictor responsiveness to acetylcholine in isolated rabbit tracheal ASM rings (organ bath)
Type: cell-based
Conditions: control (not cytokine-exposed) ASM, DEX 1 μM, 24 hours
Protocol: Following general anesthesia with xylazine (10 mg/kg) and ketamine 50 mg/kg), NZW rabbits were sacrificed by air embolism and the tracheae were removed, cleaned of loose connective tissue and epithelium, and divided into ring segments.
Following incubation, the ASM tissue segments were placed in organ baths containing modified Krebs Ringer solution, and aerated with 5% CO2 in oxygen at 37° C. The tissues' isometric cholinergic contractility was subsequently assessed by cumulative administration of acetylcholine (ACh; 10^−10 to 10^−3 M).

## C[C@@H]1C[C@H]2[C@@H]3CCC4=CC(=O)C=C[C@]4(C)[C@@]3(F)[C@@H](O)C[C@]2(C)[C@@]1(O)C(=O)CO [DEX, dexamethasone]
  effect on constrictor responses to ACh in control ASM: no effect
